Measurements reported in PMC8242589, “Cardiac Safety of Kinase Inhibitors – Improving Understanding and Prediction of Liabilities in Drug Discovery Using Human Stem Cell-Derived Models” (Frontiers in Cardiovascular Medicine, 2021).

How the values were obtained:
[1] = system: hSC-CMs (Cor.4U Cardiomyocytes); experiment: CardioExcyte 96 impedance and EFP recording (beating rate, base impedance); assay type: cell-based, human; details: for activity at 0.2 µM / activity at 2 µM / activity at 20 µM / activity at 200 µM: Homo sapiens, Cardiomyocyte, vs baseline before drug (taken as 100%)
Procedure, shortened: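 hSC-CM monolayers (Cor.4U), cultured 4 days at 37 °C, 5% CO2, recorded spontaneously beating; impedance sampled at 1 kHz, EFP at 10 kHz. Beating rate taken as reciprocal of inter-spike interval in EFP. Each test concentration expressed as fractional change versus pre-drug baseline (100%).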

[2] = system: hSC-CMs (Cor.4U Cardiomyocytes); experiment: Apoptosis assay (CellEvent Caspase-3/7 Green, IncuCyte ZOOM kinetics over 24 h); assay type: cell-based, human; details: for activity at 0.2 µM / activity at 2 µM / activity at 20 µM / activity at 200 µM: Homo sapiens, Cardiomyocyte, normalized to time-matched vehicle control
Procedure, shortened: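 Cor.4U cardiomyocytes were cultured 4 days at 5% CO2 and 37 °C, given a 2 h baseline, then treated with compound for 24 h. Caspase-3/7 green nuclear signal was imaged every 2 h, and total green object area per well (μm^2/well) was normalized to the time-matched vehicle control. At least three replicates were run per concentration.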

[3] = system: hSC-CMs (Cor.4U Cardiomyocytes); experiment: ATP assay (CellTiter-Glo Luminescent Cell Viability Assay); assay type: cell-based, human; details: for viability at 0.2 µM / viability at 2 µM / viability at 20 µM / viability at 200 µM: Homo sapiens, Cardiomyocyte, normalized to time-matched DMSO control
Procedure, shortened: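 Human stem-cell-derived Cor.4U cardiomyocytes (25,000–30,000/well), cultured 4 days at 37 °C, switched to serum-free BMCC medium 12 h before dosing. Cellular ATP quantified by CellTiter-Glo luminescence and normalized to time-matched DMSO controls; at least three replicates per concentration.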

PI3K p110β = details: ref [23]–[25] (NVP-BEZ235), [27] (LY 294002), [28] (GDC-0941), [32] (TGX-221), [33] (CAL-101), [35] (CZC24832); read-out: Target IC50 p110β; cited from earlier work
[4] = clinical exposure in patients; ref [26] (NVP-BEZ235), [29], [30] (GDC-0941), [34] (CAL-101); cited from earlier work

CC[C@H](Nc1ncnc2[nH]cnc12)c1nc2cccc(F)c2c(=O)n1-c1ccccc1 [CAL-101, Idelalisib]
activity at 0.2 µM ([1]; 2h, read-out: BR): 102%
activity at 0.2 µM ([1]; 2h, read-out: Base Imp): 93%
activity at 0.2 µM ([1]; 24h, read-out: BR): 99%
activity at 0.2 µM ([1]; 24h, read-out: Base Imp): 94%
activity at 2 µM ([1]; 2h, read-out: BR): 96%
activity at 2 µM ([1]; 2h, read-out: Base Imp): 93%
activity at 2 µM ([1]; 24h, read-out: BR): 94%
activity at 2 µM ([1]; 24h, read-out: Base Imp): 99%
activity at 20 µM ([1]; 2h, read-out: BR): 89%
activity at 20 µM ([1]; 2h, read-out: Base Imp): 96%
activity at 20 µM ([1]; 24h, read-out: BR): 80%
activity at 20 µM ([1]; 24h, read-out: Base Imp): 89%
activity at 200 µM ([1]; 2h, read-out: BR): 5%
activity at 200 µM ([1]; 2h, read-out: Base Imp): 70%
activity at 200 µM ([1]; 24h, read-out: BR): 39%
activity at 200 µM ([1]; 24h, read-out: Base Imp): 52%
Effect on cardiomyocyte function in 3D surface plots (beating rate, base impedance, ATP), in words ([1]; hSC-CMs, 2 and 24 h): pronounced effects
Reduction of base impedance ([1]; hSC-CMs, 2 and 24 h): more than 20%
Reduction of beating rate ([1]; hSC-CMs, 2 and 24 h): more than 20%
activity at 0.2 µM ([2]; 2h): 137%
activity at 0.2 µM ([2]; 24h): 90%
activity at 2 µM ([2]; 2h): 118%
activity at 2 µM ([2]; 24h): 83%
activity at 20 µM ([2]; 2h): 99%
activity at 20 µM ([2]; 24h): 169%
activity at 200 µM ([2]; 2h): 83%
activity at 200 µM ([2]; 24h): 544%
Apoptosis (caspase-3/7 activation), result in words ([2]; hSC-CMs, monitored over 24 h): induced apoptosis in hSC-CMs with a fast onset
Time to reach the maximum number of apoptotic cells ([2]; hSC-CMs, monitored over 24 h): ≤ 12 h
viability at 0.2 µM ([3]; 2h): 87%
viability at 0.2 µM ([3]; 24h): 98%
viability at 2 µM ([3]; 2h): 87%
viability at 2 µM ([3]; 24h): 92%
viability at 20 µM ([3]; 2h): 92%
viability at 20 µM ([3]; 24h): 89%
viability at 200 µM ([3]; 2h): 98%
viability at 200 µM ([3]; 24h): 79%
Decrease of ATP level ([3]; hSC-CMs, after 24 h of incubation): 20–25%
IC50 (PI3K p110β): 0.056 µM
Cmax free [4]: 700 nM
